Test results published in patent publication US6686393B1, “Pharmaceutical compositions having antiviral activity against human cytomegalovirus” (Murdock International Corporation, priority 1990, dated 2004).
Several values for one entry are separate records, joined by “and”; a condition that tells them apart may be missing. Identical values can stand only once. Entries after “also recorded” stand apart in the source; their conditions may differ. Like-named read-outs stand apart in the source and are kept apart here.

What was measured:
[1] = system: HCMV, strain C8805-37 (DHPG-resistant); experiment: microbe, parasite or virus in culture; type: cell-based, human cytomegalovirus; conditions: for inhibition at 10 µg/mL: Human betaherpesvirus 5, MRC5, 96 h, read-out: Percent Inhibition Compared to Controls; for inhibition at 0.01 µg/mL / inhibition at 0.032 µg/mL / inhibition at 0.1 µg/mL / inhibition at 0.32 µg/mL / inhibition at 1 µg/mL / inhibition at 3.2 µg/mL: Human betaherpesvirus 5, MRC5, read-out: Percent Inhibition Compared to Controls
[2] = system: human cytomegalovirus (HCMV), strain AD-169; experiment: Antiviral test (plaque reduction) versus HCMV, strain AD-169, in MRC-5 cells; type: cell-based; conditions: for Number of Plaques: average of two wells; for inhibition at 0.1 µg/mL: Human betaherpesvirus 5, AD169, MRC5, 0.1 μg/ml; for inhibition at 0.32 µg/mL: Human betaherpesvirus 5, AD169, MRC5, 0.32 μg/ml; for inhibition at 1 µg/mL: Human betaherpesvirus 5, AD169, MRC5, 1.0 μg/ml
[3] = Human betaherpesvirus 5, AD169, MRC5, read-out: % Reduction
[4] = Example 1, DMSO stock, read-out: % Inhibition
[5] = Example 2, read-out: Percent Inhibition of Plaque Numbers (Compared to Virus Controls)

O=C1c2ccc(O)c(O)c2C(=O)c2c(O)ccc(O)c21 [Quinalizarin, quinalizarin]
CD50 (MRC-5 cells; human, 4 days): >10 µg/mL | inhibition at 10 µg/mL [1]: 98% | inhibition at 0.01 µg/mL [1]: 21% | inhibition at 0.032 µg/mL [1]: 44% | inhibition at 0.1 µg/mL [1]: 20% | inhibition at 0.32 µg/mL [1]: 0% | inhibition at 1 µg/mL [1]: 42% | inhibition at 3.2 µg/mL [1]: 88% | Activity against HCMV [2]: definitely active; also recorded: show activity | inhibition at 3.2 µg/mL [2, 3]: 100%

Cc1cc(O)c2c(c1)C(=O)c1cc(O)cc(O)c1C2=O [Emodin, emodin]
CD50 (MRC-5 cells; human, 4 days): 3.4 µg/mL | Activity against DHPG resistant HCMV strain [1]: retain essentially the same activity | Percent Inhibition Compared to Controls [1]: toxic | inhibition at 0.01 µg/mL [1]: 0% | inhibition at 0.032 µg/mL [1]: 0% | inhibition at 0.1 µg/mL [1]: 0% | inhibition at 0.32 µg/mL [1]: 0% | inhibition at 1 µg/mL [1]: 46% | inhibition at 3.2 µg/mL [1]: 100% | Number of Plaques ([2]; 0.0032 μg/ml, Example 1, DMSO stock): 79 | Number of Plaques ([2]; 0.1 μg/ml, Example 1, DMSO stock): 72 | Number of Plaques ([2]; 0.32 μg/ml, Example 1, DMSO stock): 78 | Number of Plaques ([2]; 1.0 μg/ml, Example 1, DMSO stock): 22 | Number of Plaques ([2]; 3.2 μg/ml, Example 1, DMSO stock): 0 | Number of Plaques ([2]; 10 μg/ml, Example 1, DMSO stock): 0 | Percent Inhibition of Plaque Numbers (Compared to Virus Controls) ([2]; 10 μg/ml, Example 2, ethanol stock (protohypericin in DMSO), cells exposed 6 or more days): toxic | inhibition at 0.0032 µg/mL ([2]; Human betaherpesvirus 5, AD169, MRC5, 0.0032 μg/ml, Example 1, DMSO stock): 0% | inhibition at 0.01 µg/mL ([2]; Human betaherpesvirus 5, AD169, MRC5, 0.01 μg/ml, Example 2, read-out: Percent Inhibition of Plaque Numbers (Compared to Virus Controls)): 0% | inhibition at 0.032 µg/mL ([2]; Human betaherpesvirus 5, AD169, MRC5, 0.032 μg/ml, Example 2, read-out: Percent Inhibition of Plaque Numbers (Compared to Virus Controls)): 0% | inhibition at 0.1 µg/mL [2, 4]: 9% | inhibition at 0.1 µg/mL [2, 5]: 0% | inhibition at 0.32 µg/mL [2, 4]: 1% | inhibition at 0.32 µg/mL [2, 5]: 0% | inhibition at 1 µg/mL [2, 4]: 72% | inhibition at 1 µg/mL [2, 5]: 39% | inhibition at 3.2 µg/mL ([2]; Human betaherpesvirus 5, AD169, MRC5, 3.2 μg/ml, Example 1, DMSO stock, read-out: % Inhibition): 100% | inhibition at 3.2 µg/mL ([2]; Human betaherpesvirus 5, AD169, MRC5, 3.2 μg/ml, Example 2, read-out: Percent Inhibition of Plaque Numbers (Compared to Virus Controls)): 100% | inhibition at 10 µg/mL ([2]; Human betaherpesvirus 5, AD169, MRC5, 10 μg/ml, Example 1, DMSO stock, read-out: % Inhibition): 100% | Activity against HCMV ([2]; statement in words on the plaque reduction results): show activity | Activity against HCMV ([2]; statement in words on the plaque reduction results, listed as emodin): anti-HCMV activity

O=C(O)c1cc(O)c2c(c1)C(=O)c1cccc(O)c1C2=O [Rhein, rhein]
CD50 (MRC-5 cells; Example 3, cells exposed 4 days): >10 µg/mL | CD50 (MRC-5 cells; Example 5): 3.4 µg/mL | CD50 (MRC-5 cells; Example 7): 2.9 µg/mL | CD50 (MRC-5 cells; Table 9 summary, two values = two experiments): 3.4 µg/mL and 2.9 µg/mL | CD50 (MRC-5 cells; Table 10 summary, DHPG resistant HCMV test): >10 µg/mL | inhibition at 10 µg/mL [1]: 100% | inhibition at 0.01 µg/mL [1]: 0% | inhibition at 0.032 µg/mL [1]: 0% | inhibition at 0.1 µg/mL [1]: 38% | inhibition at 0.32 µg/mL [1]: 0% | inhibition at 1 µg/mL [1]: 49% | inhibition at 3.2 µg/mL [1]: 100% | inhibition at 3.2 µg/mL [2, 3]: 100%
